Columns and labels:
[1] = target: T1, human neutrophil elastase (HNE) (Homo sapiens, UniProt P08246); experiment: Specificity assay, human neutrophil elastase; assay type: biochemical; details: read-out: HLE activity in the specificity assays
T1 sequence (P08246 30-267): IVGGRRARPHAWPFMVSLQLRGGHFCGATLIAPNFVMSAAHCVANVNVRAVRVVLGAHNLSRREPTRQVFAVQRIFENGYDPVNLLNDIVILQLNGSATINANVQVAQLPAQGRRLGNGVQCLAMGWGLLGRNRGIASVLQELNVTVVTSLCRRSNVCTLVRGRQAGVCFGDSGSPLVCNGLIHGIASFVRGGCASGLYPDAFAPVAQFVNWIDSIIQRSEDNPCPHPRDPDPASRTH
Description: (§1) The specificities of compounds of the present disclosure were determined against a variety of serine proteases: human neutrophil elastase (HNE), porcine pancreatic elastase (PPE) and human pancreatic chymotrypsin and one cysteine protease: human liver cathepsin B. In all cases a 96-well plate format protocol using a fluorometric Amino-Methyl-Coumarin (AMC) substrate specific for each enzyme was used as described previously (PCT Patent Application No. WO 00/09543) with some modifications to the serine protease assays. All enzymes were purchased from Sigma, EMDbiosciences while the substrates were from Bachem, Sigma and EMDbiosciences.
(§2) Compound concentrations varied from 100 to 0.4 μM depending on their potency. The enzyme assays were each initiated by addition of substrate to enzyme-inhibitor pre-incubated for 10 min at room temperature and hydrolysis to 15% conversion as measured on cytofluor. […]
(§3) The percentage of inhibition was calculated using the formula: […]

[2] = target: porcine pancreatic elastase (PPE) (Sus scrofa, UniProt P00772); experiment: Specificity assay, porcine pancreatic elastase; assay type: biochemical; details: read-out: PPE activity in the specificity assays
Chain of porcine pancreatic elastase (PPE) (P00772 27-266): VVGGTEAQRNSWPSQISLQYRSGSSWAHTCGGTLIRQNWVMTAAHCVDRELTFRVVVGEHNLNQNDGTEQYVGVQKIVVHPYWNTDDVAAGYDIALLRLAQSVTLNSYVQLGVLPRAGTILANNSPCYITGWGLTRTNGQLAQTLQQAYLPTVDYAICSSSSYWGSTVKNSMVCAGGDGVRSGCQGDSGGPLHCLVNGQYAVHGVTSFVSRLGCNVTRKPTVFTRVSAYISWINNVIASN
Description: as §1, §2, §3

With COc1ccc2c(O[C@@H]3C[C@H]4C(=O)N[C@]5(C(=O)NS(=O)(=O)C6CC6)C[C@H]5/C=C\CCCCC[C@H](Nc5ccc(OC)nc5)C(=O)N4C3)nccc2c1 (single isomer, unassigned) [Compound 1] the IC50 [1] was 1.5 µM and the IC50 [2] was > 25 µM.
